ChEMBL document CHEMBL4130481, “Structures and Antibacterial Properties of Isorugosins H-J, Oligomeric Ellagitannins from Liquidambar formosana with Characteristic Bridging Groups between Sugar Moieties” (J Nat Prod, 2017)
In brackets after ≈: the same amount, converted by molar mass. Activity calls are given as the source filed them. No cut-off for these calls is given here.

Key:
Staphylococcus aureus [1] = assay: Antibacterial activity against methicillin-resistant Staphylococcus aureus isolate OM481 after 24 hrs by liquid dilution method; format: functional; conditions: isolate OM481, 24 h
Staphylococcus aureus [2] = assay: Antibacterial activity against methicillin-sensitive Staphylococcus aureus 209P after 24 hrs by liquid dilution method; format: functional
Staphylococcus aureus [3] = assay: Antibacterial activity against methicillin-resistant Staphylococcus aureus isolate OM505 after 24 hrs by liquid dilution method; format: functional; conditions: isolate OM505, 24 h
Staphylococcus aureus [4] = assay: Antibacterial activity against methicillin-resistant Staphylococcus aureus isolate OM505; format: functional
Staphylococcus aureus [5] = assay: Antibacterial activity against methicillin-resistant Staphylococcus aureus isolate OM481; format: functional
Staphylococcus aureus [6] = assay: Antibacterial activity against methicillin-sensitive Staphylococcus aureus 209P; format: functional
Pseudomonas aeruginosa [7] = assay: Antibacterial activity against Pseudomonas aeruginosa PAO1 assessed as inhibition of green pigment formation; format: functional
Pseudomonas aeruginosa [8] = assay: Antibacterial activity against Pseudomonas aeruginosa PAO1 after 24 hrs by liquid dilution method; format: functional
Albumin [9] = target: T1, Albumin (Bos taurus, UniProt P02769); assay: Binding affinity to bovine serum albumin by SDS-PAGE analysis; format: ADME; conditions: cattle, isolated protein
T1 sequence (P02769 whole entry): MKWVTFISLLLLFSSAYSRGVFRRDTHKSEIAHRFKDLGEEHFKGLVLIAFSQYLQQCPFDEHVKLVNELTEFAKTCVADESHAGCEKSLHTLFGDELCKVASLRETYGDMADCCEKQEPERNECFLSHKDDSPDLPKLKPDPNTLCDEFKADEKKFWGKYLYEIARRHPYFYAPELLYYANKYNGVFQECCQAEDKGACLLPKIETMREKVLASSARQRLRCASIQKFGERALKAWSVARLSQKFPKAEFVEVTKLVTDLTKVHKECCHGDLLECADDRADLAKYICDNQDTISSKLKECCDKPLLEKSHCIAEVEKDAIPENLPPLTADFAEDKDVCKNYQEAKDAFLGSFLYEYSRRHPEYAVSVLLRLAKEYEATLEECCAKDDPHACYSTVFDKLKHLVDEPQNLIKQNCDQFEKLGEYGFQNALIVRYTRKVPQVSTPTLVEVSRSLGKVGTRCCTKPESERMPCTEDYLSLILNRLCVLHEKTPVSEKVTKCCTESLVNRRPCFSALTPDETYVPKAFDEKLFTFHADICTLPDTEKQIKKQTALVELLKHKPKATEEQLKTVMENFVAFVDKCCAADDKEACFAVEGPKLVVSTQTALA

Albumin [10] = target: T1, Albumin; assay: Binding affinity to bovine serum albumin assessed as retention time for compound-protein complex formation at 0.5 mg/ml by size exclusion chromatographic method (reference value: 16 mins); format: ADME; conditions: cattle

## Cc1onc(-c2ccccc2)c1C(=O)N[C@@H]1C(=O)N2[C@@H]1SC(C)(C)[C@@H]2C(=O)O [OXACILLIN]
Staphylococcus aureus [1]
  MIC: 638 µM (≈ 256 µg/mL)
Staphylococcus aureus [2]
  MIC: < 0.6 µM
Staphylococcus aureus [3]
  MIC: 319 µM (≈ 128 µg/mL)

## O=C(OC[C@H]1O[C@@H](OC(=O)c2cc(O)c(O)c(O)c2)[C@H](OC(=O)c2cc(O)c(O)c(O)c2)[C@@H](OC(=O)c2cc(O)c(O)c(O)c2)[C@@H]1OC(=O)c1cc(O)c(O)c(O)c1)c1cc(O)c(O)c(O)c1 [PENTAGALLOYL GLUCOSE]
Staphylococcus aureus [4]
  MIC: 68 µM (≈ 64 µg/mL)
Staphylococcus aureus [5]
  MIC: 68 µM (≈ 64 µg/mL)
Staphylococcus aureus [6]
  MIC: 68 µM (≈ 64 µg/mL)
Pseudomonas aeruginosa [7]
  inhibition: Active

## O=C1OC[C@H]2O[C@H](O)[C@@H]3OC(=O)c4cc(O)c(O)c(O)c4-c4c(cc(O)c(O)c4O)C(=O)O[C@H]3[C@@H]2OC(=O)c2cc(O)c(O)c(O)c2-c2c1cc(O)c(O)c2O
Pseudomonas aeruginosa [7]
  inhibition: Active

## NCC[C@H](O)C(=O)N[C@@H]1C[C@H](N)[C@@H](O[C@H]2O[C@H](CN)[C@@H](O)[C@H](O)[C@H]2O)[C@H](O)[C@H]1O[C@H]1O[C@H](CO)[C@@H](O)[C@H](N)[C@H]1O [AMIKACIN]
Pseudomonas aeruginosa [8]; PAO1, 24 h
  MIC: 14 µM (≈ 8.2 µg/mL)

## O=C(O[C@H]1[C@@H]2OC(=O)c3cc(Oc4c(C(=O)O)cc(O)c(O)c4O)c(O)c(O)c3-c3c(cc(O)c(O)c3O)C(=O)OC[C@H]2OC(O)[C@@H]1OC(=O)c1cc(O)c(O)c(O)c1)c1cc(O)c(O)c(O)c1 (some centres undefined)
Staphylococcus aureus [1]
  MIC: 34 µM (≈ 32.5 µg/mL)
Staphylococcus aureus [2]
  MIC: 67 µM (≈ 64 µg/mL)
Albumin [9]
  Activity: Active
Pseudomonas aeruginosa [8]; PAO1, 24 h
  MIC: > 1070 µM
Pseudomonas aeruginosa [7]
  MIC: 34 µM (≈ 32.5 µg/mL)
Albumin [10]
  Retention time: 9 to 12 min
Staphylococcus aureus [3]
  MIC: 67 µM (≈ 64 µg/mL)

## O=C(O[C@@H]1O[C@@H]2COC(=O)c3cc(O)c(O)c(O)c3-c3c(cc(Oc4c(C(=O)O)cc(O)c(O)c4O)c(O)c3O)C(=O)O[C@H]2[C@H](OC(=O)c2cc(O)c(O)c(O)c2)[C@H]1OC(=O)c1cc(O)c(O)c(O)c1)c1cc(O)c(O)c(O)c1
Staphylococcus aureus [1]
  MIC: 29 µM (≈ 32.1 µg/mL)
Staphylococcus aureus [2]
  MIC: 58 µM (≈ 64.2 µg/mL)
Albumin [9]
  Activity: Active
Pseudomonas aeruginosa [8]; PAO1, 24 h
  MIC: > 926 µM
Pseudomonas aeruginosa [7]
  MIC: 29 µM (≈ 32.1 µg/mL)
Albumin [10]
  Retention time: 9 to 12 min
Staphylococcus aureus [3]
  MIC: 58 µM (≈ 64.2 µg/mL)

## O=C(O[C@@H]1O[C@@H]2COC(=O)c3cc(O)c(O)c(O)c3-c3c(cc(Oc4c(C(=O)O[C@@H]5O[C@@H]6COC(=O)c7cc(O)c(O)c(O)c7-c7c(cc(Oc8c(C(=O)O[C@@H]9O[C@@H]%10COC(=O)c%11cc(O)c(O)c(O)c%11-c%11c(cc(O)c(O)c%11O)C(=O)O[C@H]%10[C@H](OC(=O)c%10cc(O)c(O)c(O)c%10)[C@H]9OC(=O)c9cc(O)c(O)c(O)c9)cc(O)c(O)c8O)c(O)c7O)C(=O)O[C@H]6[C@H](OC(=O)c6cc(O)c(O)c(O)c6)[C@H]5OC(=O)c5cc(O)c(O)c(O)c5)cc(O)c(O)c4O)c(O)c3O)C(=O)O[C@H]2[C@H](OC(=O)c2cc(O)c(O)c(O)c2)[C@H]1OC(=O)c1cc(O)c(O)c(O)c1)c1cc(O)c(O)c(O)c1
Staphylococcus aureus [1]
  MIC: 91 µM (≈ 256 µg/mL)
Staphylococcus aureus [2]
  MIC: 23 µM (≈ 64.7 µg/mL)
Albumin [9]
  Activity: Active
Pseudomonas aeruginosa [8]; PAO1, 24 h
  MIC: > 364 µM
Pseudomonas aeruginosa [7]
  MIC: 23 µM (≈ 64.7 µg/mL)
Albumin [10]
  Retention time: 9 to 12 min
Staphylococcus aureus [3]
  MIC: 91 µM (≈ 256 µg/mL)

## GENTAMICIN
Pseudomonas aeruginosa [8]
  MIC: 17 µM

## O=C(O[C@@H]1O[C@@H]2COC(=O)c3cc(O)c(O)c(O)c3-c3c(cc(Oc4c(C(=O)O[C@@H]5O[C@@H]6COC(=O)c7cc(O)c(O)c(O)c7-c7c(cc(O)c(O)c7O)C(=O)O[C@H]6[C@H](OC(=O)c6cc(O)c(O)c(O)c6)[C@H]5OC(=O)c5cc(O)c(O)c(O)c5)cc(O)c(O)c4O)c(O)c3O)C(=O)O[C@H]2[C@H](OC(=O)c2cc(O)c(O)c(O)c2)[C@H]1OC(=O)c1cc(O)c(O)c(O)c1)c1cc(O)c(O)c(O)c1
Staphylococcus aureus [1]
  MIC: 34 µM (≈ 63.8 µg/mL)
Staphylococcus aureus [2]
  MIC: 34 µM (≈ 63.8 µg/mL)
Albumin [9]
  Activity: Active
Pseudomonas aeruginosa [8]; PAO1, 24 h
  MIC: > 546 µM
Pseudomonas aeruginosa [7]
  MIC: 34 µM (≈ 63.8 µg/mL)
Albumin [10]
  Retention time: 9 to 12 min
Staphylococcus aureus [3]
  MIC: 68 µM (≈ 128 µg/mL)

## O=C(O[C@@H]1COC(=O)c2cc(O)c(O)c(O)c2-c2c(cc(O)c(O)c2O)C(=O)O[C@H]1[C@@H]1OC(=O)c2cc(O)c(O)c(O)c2-c2c(O)c(O)c(O)c3c2C(=O)O[C@H]1[C@H]3O)c1cc(O)c(O)c(O)c1
Pseudomonas aeruginosa [7]
  inhibition: Active
